In the experiment the target is T1, BRAF V600E (Homo sapiens, UniProt P15056, V600E).
T1 construct: endogenous C-terminal HiBiT fusion tag on BRAF V600E allele; endogenous in cells; host or cells: A375 clone 1F10 (CRISPR-Cas9 knock-in of the HiBiT tag; parental A375 from ATCC)
As to the kind of experiment: BRAF HiBiT degradation assay, C-terminal HiBiT-tagged BRAF V600E A375 cells (clone 1F10), Nano-Glo HiBiT Lytic assay. The format is cell-based. The following applies: A375 (BRAF V600E); for DC50: DC50 at 50%: fitted conc. at Y=50; for Dmax: A-375, percentage protein degraded at maximal compound effect relative to DMSO. Summed up: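 Steps: seed HiBiT-tagged A375 clone 1F10 cells; incubate 24 h, 37 °C, 5% CO2; add compound (11 half-log points from 1 μM, 0.2% DMSO); lyse with HiBiT detection reagent plus LgBiT for 10 min; read luminescence; fit % protein remaining against concentration.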
On the technique in general: With HiBiT, luminescence reflects the tagged protein that the partner subunit can reach.

T1 sequence (P15056 whole entry V600E, the tested form may be a part): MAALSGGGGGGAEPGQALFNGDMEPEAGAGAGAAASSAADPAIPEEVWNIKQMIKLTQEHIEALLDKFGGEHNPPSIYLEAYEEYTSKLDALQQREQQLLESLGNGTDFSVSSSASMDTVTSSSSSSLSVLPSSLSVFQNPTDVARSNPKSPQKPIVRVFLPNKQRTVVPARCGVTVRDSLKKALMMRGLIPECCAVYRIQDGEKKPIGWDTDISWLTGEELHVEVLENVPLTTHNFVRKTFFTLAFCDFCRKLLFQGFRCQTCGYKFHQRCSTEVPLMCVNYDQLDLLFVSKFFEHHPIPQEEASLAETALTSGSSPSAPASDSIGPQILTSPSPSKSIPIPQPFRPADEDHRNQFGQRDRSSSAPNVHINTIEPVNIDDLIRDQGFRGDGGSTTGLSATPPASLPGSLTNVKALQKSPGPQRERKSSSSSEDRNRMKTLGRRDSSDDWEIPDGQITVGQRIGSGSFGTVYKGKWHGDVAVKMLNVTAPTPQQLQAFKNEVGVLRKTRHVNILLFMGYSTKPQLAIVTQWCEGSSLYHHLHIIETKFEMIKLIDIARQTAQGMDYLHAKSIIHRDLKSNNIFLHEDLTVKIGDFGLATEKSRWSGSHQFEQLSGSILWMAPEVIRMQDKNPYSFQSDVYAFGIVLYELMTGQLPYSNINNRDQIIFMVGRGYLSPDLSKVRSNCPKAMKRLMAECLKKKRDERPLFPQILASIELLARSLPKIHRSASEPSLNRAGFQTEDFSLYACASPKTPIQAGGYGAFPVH

Consider `CCCS(=O)(=O)Nc1cccc(-c2nc(C(C)(C)C)sc2-c2ccnc(Nc3cccc(C4CCN(C(=O)[C@@H]5CCN(c6ccc(C7CCC(=O)NC7=O)cn6)C5)CC4)c3)n2)c1F` (mixture of isomers) [Compound 102, N-[3-(2-tert-butyl-5-{2-[(3-{1-[(3R)-1-{5-[(3RS)-2,6-dioxopiperidin-3-yl]pyridin-2-yl}pyrrolidine-3-carbonyl]piperidin-4-yl}phenyl)amino]pyrimidin-4-yl}-1,3-thiazol-4-yl)-2-fluorophenyl]propane-1-sulfonamide], for which the 50% degradation concentration (DC50) was 10 to 50 nM and the maximal degradation (Dmax) was in the range of 30 to 70%.

`CCCS(=O)(=O)Nc1cccc(-c2cn(-c3ccc(C(=O)N4CCN(C(=O)C5CCN(c6ccc(C7CCC(=O)NC7=O)cc6)CC5)CC4)cc3)nc2-c2ccncc2)c1F` (racemic) [Compound 14, Rac-N-[3-(1-{4-[4-(1-{4-[(3R)-2,6-dioxopiperidin-3-yl]phenyl}piperidine-4-carbonyl)piperazine-1-carbonyl]phenyl}-3-(pyridin-4-yl)-1H-pyrazol-4-yl)-2-fluorophenyl]propane-1-sulfonamide] yielded a DC50 of 50 to 500 nM and a Dmax of 30 to 70%.

Consider `CCCS(=O)(=O)Nc1cccc(-c2nc(C3CCN(C(=O)C4CCN(C(=O)CC5CCN(c6ccc(NC7CCC(=O)NC7=O)cc6)CC5)CC4)CC3)sc2-c2ccncn2)c1F` (racemic) [Compound 184, Rac-N-(3-{2-[1-(1-{2-[1-(4-{[(3R)-2,6-dioxopiperidin-3-yl]amino}phenyl)piperidin-4-yl]acetyl}piperidine-4-carbonyl)piperidin-4-yl]-5-(pyrimidin-4-yl)-1,3-thiazol-4-yl}-2-fluorophenyl)propane-1-sulfonamide], for which the DC50 was < 10 nM and the Dmax was > 70%.

As to `CCCS(=O)(=O)Nc1cccc(-c2nc(C3CCN(C(=O)C4(C)CCN(C(=O)C5CCN(c6ccc(C7CCC(=O)NC7=O)cc6)CC5)CC4)CC3)sc2-c2ccncn2)c1F` (racemic) [Compound 178, Rac-N-[3-(2-{1-[1-(1-{4-[(3R)-2,6-dioxopiperidin-3-yl]phenyl}piperidine-4-carbonyl)-4-methylpiperidine-4-carbonyl]piperidin-4-yl}-5-(pyrimidin-4-yl)-1,3-thiazol-4-yl)-2-fluorophenyl]propane-1-sulfonamide], the DC50 is < 10 nM and the Dmax was > 70%.

With `CCCS(=O)(=O)Nc1cccc(-c2nc(C(C)(C)C)sc2-c2ccnc(NC3CC4(CCN(C[C@H]5CC[C@H](Oc6ccc(C7CCC(=O)NC7=O)cc6)CC5)CC4)C3)n2)c1F` (mixture of isomers) [Compound 130, N-[3-(2-tert-butyl-5-{2-[(7-{[(1r,4r)-4-{4-[(3RS)-2,6-dioxopiperidin-3-yl]phenoxy}cyclohexyl]methyl}-7-azaspiro[3.5]nonan-2-yl)amino]pyrimidin-4-yl}-1,3-thiazol-4-yl)-2-fluorophenyl]propane-1-sulfonamide], the half-maximal degradation concentration (DC50) was > 500 nM and the Dmax fell in the range of 30 to 70%.

In turn, `CCCS(=O)(=O)Nc1cccc(-c2nc(C(C)(C)C)sc2-c2ccnc(NC[C@H]3CCN(CC4CCN(c5ccc(C(=O)N[C@H]6CCC(=O)NC6=O)nc5)CC4)C3)n2)c1F` [Compound 143, 5-(4-{[(3R)-3-{[(4-{2-tert-butyl-4-[2-fluoro-3-(propane-1-sulfonamido)phenyl]-1,3-thiazol-5-yl}pyrimidin-2-yl)amino]methyl}pyrrolidin-1-yl]methyl}piperidin-1-yl)-N-[(3S)-2,6-dioxopiperidin-3-yl]pyridine-2-carboxamide] came in with a DC50 of 50 to 500 nM and a Dmax of 30 to 70%.

`CCCS(=O)(=O)Nc1cccc(-c2nc(C(C)(C)C)sc2-c2ccnc(Nc3cccc(OC4CCN(CC5CCN(c6ccc7c(=O)n(C8CCC(=O)NC8=O)ccc7c6)CC5)CC4)c3)n2)c1F` (racemic) [Compound 71, Rac-N-{3-[2-tert-butyl-5-(2-{[3-({1-[(1-{2-[(3R)-2,6-dioxopiperidin-3-yl]-1-oxo-1,2-dihydroisoquinolin-6-yl}piperidin-4-yl)methyl]piperidin-4-yl}oxy)phenyl]amino}pyrimidin-4-yl)-1,3-thiazol-4-yl]-2-fluorophenyl}propane-1-sulfonamide] returned a DC50 of 10 to 50 nM and a Dmax of 30 to 70%.

Turning to `CCCS(=O)(=O)Nc1cccc(-c2nc(C3CCC4(CC3)CN(C(=O)CN3CCN(c5ccc6c(c5)C(=O)N(C5CCC(=O)NC5=O)C6=O)CC3)C4)sc2-c2ccnc(N)n2)c1F` (racemic) [Compound 230, Rac-N-{3-[5-(2-aminopyrimidin-4-yl)-2-{2-[2-(4-{2-[(3R)-2,6-dioxopiperidin-3-yl]-1,3-dioxo-2,3-dihydro-1H-isoindol-5-yl}piperazin-1-yl)acetyl]-2-azaspiro[3.5]nonan-7-yl}-1,3-thiazol-4-yl]-2-fluorophenyl}propane-1-sulfonamide], the DC50 was < 10 nM and the Dmax is 30 to 70%.

Compound `CCCS(=O)(=O)Nc1cccc(-c2nc(C(C)(C)C)sc2-c2ccnc(Nc3cccc(C4CCN(CC[C@H]5CCN(c6ccc(C7CCC(=O)NC7=O)cn6)C5)CC4)c3)n2)c1F` (mixture of isomers) [Compound 74, N-{3-[2-tert-butyl-5-(2-{[3-(1-{2-[(3S)-1-{5-[(3RS)-2,6-dioxopiperidin-3-yl]pyridin-2-yl}pyrrolidin-3-yl]ethyl}piperidin-4-yl)phenyl]amino}pyrimidin-4-yl)-1,3-thiazol-4-yl]-2-fluorophenyl}propane-1-sulfonamide] had a DC50 of 10 to 50 nM and a Dmax of 30 to 70%.

The compound `CCCS(=O)(=O)Nc1cccc(-c2nc(C(C)(C)C)sc2-c2ccnc(NC3CC4(C3)CN(C(=O)C3CCN(c5cccc6c5n(C)c(=O)n6C5CCC(=O)NC5=O)CC3)C4)n2)c1F` (racemic) [Compound 160, Rac-N-{3-[2-tert-butyl-5-(2-{[2-(1-{1-[(3R)-2,6-dioxopiperidin-3-yl]-3-methyl-2-oxo-2,3-dihydro-1H-1,3-benzodiazol-4-yl}piperidine-4-carbonyl)-2-azaspiro[3.3]heptan-6-yl]amino}pyrimidin-4-yl)-1,3-thiazol-4-yl]-2-fluorophenyl}propane-1-sulfonamide] had a Dmax of 30 to 70%.

Turning to `CCCS(=O)(=O)Nc1cccc(-c2nc(C(C)(C)C)sc2-c2ccnc(Nc3cnn(C4CCN(CC[C@@H]5CCN(c6ccc(C7CCC(=O)NC7=O)cn6)C5)CC4)c3)n2)c1F` (mixture of isomers) [Compound 78, N-{3-[2-tert-butyl-5-(2-{[1-(1-{2-[(3R)-1-{5-[(3RS)-2,6-dioxopiperidin-3-yl]pyridin-2-yl}pyrrolidin-3-yl]ethyl}piperidin-4-yl)-1H-pyrazol-4-yl]amino}pyrimidin-4-yl)-1,3-thiazol-4-yl]-2-fluorophenyl}propane-1-sulfonamide], the DC50 was 10 to 50 nM and the Dmax was > 70%.

`CCCS(=O)(=O)Nc1cccc(-c2nc(C(C)(C)C)sc2-c2ccnc(Nc3ccc(N4CCN(CC5CCN(c6ccc([C@@H]7CCC(=O)NC7=O)cc6)CC5)CC4)c(F)c3)n2)c1F` [Compound 88, N-[3-(2-tert-butyl-5-{2-[(4-{4-[(1-{4-[(3S)-2,6-dioxopiperidin-3-yl]phenyl}piperidin-4-yl)methyl]piperazin-1-yl}-3-fluorophenyl)amino]pyrimidin-4-yl}-1,3-thiazol-4-yl)-2-fluorophenyl]propane-1-sulfonamide] had a DC50 of 10 to 50 nM and a Dmax of 30 to 70%.

Consider `CCCS(=O)(=O)Nc1cccc(-c2nc(C(C)(C)C)sc2-c2ccnc(NC3CC4(C3)CN(C(=O)C3CN(C5CCN(c6ccc7c(c6)C(=O)N(C6CCC(=O)NC6=O)C7=O)CC5)C3)C4)n2)c1F` (racemic) [Compound 154, Rac-N-(3-{2-tert-butyl-5-[2-({2-[1-(1-{2-[(3R)-2,6-dioxopiperidin-3-yl]-1,3-dioxo-2,3-dihydro-1H-isoindol-5-yl}piperidin-4-yl)azetidine-3-carbonyl]-2-azaspiro[3.3]heptan-6-yl}amino)pyrimidin-4-yl]-1,3-thiazol-4-yl}-2-fluorophenyl)propane-1-sulfonamide], for which the DC50 fell in the range of 50 to 500 nM and the maximal degradation (Dmax) is > 70%.

`CCCS(=O)(=O)Nc1cccc(-c2nc(C3(C)CCN(C(=O)CN4CCN(c5ccc6c(c5)C(=O)N(C5CCC(=O)NC5=O)C6=O)CC4)CC3)sc2-c2ccnc(N)n2)c1F` (racemic) [Compound 232, Rac-N-{3-[5-(2-aminopyrimidin-4-yl)-2-{1-[2-(4-{2-[(3R)-2,6-dioxopiperidin-3-yl]-1,3-dioxo-2,3-dihydro-1H-isoindol-5-yl}piperazin-1-yl)acetyl]-4-methylpiperidin-4-yl}-1,3-thiazol-4-yl]-2-fluorophenyl}propane-1-sulfonamide]: the DC50 was 50 to 500 nM and the Dmax lay within 30 to 70%.

For `CCCS(=O)(=O)Nc1cccc(-c2nc(C(C)(C)C)sc2-c2ccnc(Nc3ccc(C4CCN(C(=O)C5CCN(c6ccc(C7CCC(=O)NC7=O)cn6)CC5)CC4)cc3)n2)c1F` (racemic) [Compound 156, Rac-N-(3-{2-tert-butyl-5-[2-({4-[1-(1-{5-[(3R)-2,6-dioxopiperidin-3-yl]pyridin-2-yl}piperidine-4-carbonyl)piperidin-4-yl]phenyl}amino)pyrimidin-4-yl]-1,3-thiazol-4-yl}-2-fluorophenyl)propane-1-sulfonamide], the DC50 is 10 to 50 nM and the maximal degradation (Dmax) was > 70%.

Usually DC50 stands for the concentration at which degradation of the target reaches its halfway point. One may read the Dmax as the greatest extent of degradation seen. Low values mean a partial loss of target, high ones a fuller loss of target.

For the origin of these results see US20260317324A1, “BIFUNCTIONAL COMPOUNDS FOR DEGRADING BRAF VIA UBIQUITIN PROTEOSOME PATHWAY” (Nurix Therapeutics, Inc., priority 2023, published 2026).
